Test results reported in US9926321B2, “Hsp90 inhibitors” (Sloan-Kettering Institute for Cancer Research, priority 2011, dated 2018).

How the values were obtained:
Hsp90 (SKBr3 lysate) = assay: Hsp90 binding assay (fluorescence polarization, cy3B-GM displacement), human cancer cell lysate; conditions: lysate not given
Experimental: (§1) For the binding studies, fluorescence polarization (FP) assays w-re performed similarly as was previously reported [Du et al. (2007) “High-throughput screening fluorescence polarization assay for tumor-specific Hsp90” J. Biomol. Screen 12:915-924]. Briefly, FP measurements were performed on an Analyst GT instrument (Molecular Devices, Sunnyvale, Calif.). Measurements were taken in black 96-well microtiter plates (Corning #3650) where both the excitation and the emission occurred from the top of the well. A stock of 10 μM cy3B-GM was prepared in DMSO and diluted with HFB buffer (20 mM Hepes (K), pH 7.3, 50 mM KCl, 2 mM DTT, 5 mM MgCl2, 20 mM Na2MoO4, and 0.01% NP40 with 0.1 mg/mL BGG). The test compounds were dissolved in DMSO and added at several concentrations to the HFB assay buffer containing both 6 nM cy3B-GM and transgenic mouse brain lysate (6 μg JNPL3 lysate) or human cancer cell lysate (3 μg SKBr3 lysate) in a final volume of 100 μL. Drugs were added to triplicate wells. Free cy3B-GM (6 nM cy3B-GM), bound cy3B-GM (6 nM cy3B-GM+lysate, as indicated above) and buffer only containing wells (background) were included as controls in each plate. Plates were incubated on a shake at 4° C., and polarization values measured at 24 h. Percentage inhibition was calculated as follows: (% Control)=100−((mPc−mPf)/(mPb−mPf))×100, where mPc is the recorded mP from compound wells, mPf is the average recorded mP from cy3B-GM-only wells, and mPb is the average recorded mP from wells containing both cy3B-GM and lysate, and plotted against values of competitor concentrations. The inhibitor concentration at which 50% of bound cy3B-GM was displaced was obtained by fitting the data using a nonlinear regression analysis as implemented in Prism 4.0 (GraphPad Software).

Hsp90 = assay: as above; conditions: fluorescence polarization, cy3B-GM displacement; the table does not say which lysate (SKBr3 or JNPL3)
Experimental: as §1

hERG = molecular target: T1, hERG (Homo sapiens, UniProt Q12809); assay: hERG fluorescence polarization assay (Predictor hERG kit); format: binding; conditions: Predictor hERG fluorescence polarization, displacement of tracer red, read after 4 hrs; read-out: hERG assay
T1 construct: purchased Invitrogen PV5365
T1 sequence (Q12809 whole entry): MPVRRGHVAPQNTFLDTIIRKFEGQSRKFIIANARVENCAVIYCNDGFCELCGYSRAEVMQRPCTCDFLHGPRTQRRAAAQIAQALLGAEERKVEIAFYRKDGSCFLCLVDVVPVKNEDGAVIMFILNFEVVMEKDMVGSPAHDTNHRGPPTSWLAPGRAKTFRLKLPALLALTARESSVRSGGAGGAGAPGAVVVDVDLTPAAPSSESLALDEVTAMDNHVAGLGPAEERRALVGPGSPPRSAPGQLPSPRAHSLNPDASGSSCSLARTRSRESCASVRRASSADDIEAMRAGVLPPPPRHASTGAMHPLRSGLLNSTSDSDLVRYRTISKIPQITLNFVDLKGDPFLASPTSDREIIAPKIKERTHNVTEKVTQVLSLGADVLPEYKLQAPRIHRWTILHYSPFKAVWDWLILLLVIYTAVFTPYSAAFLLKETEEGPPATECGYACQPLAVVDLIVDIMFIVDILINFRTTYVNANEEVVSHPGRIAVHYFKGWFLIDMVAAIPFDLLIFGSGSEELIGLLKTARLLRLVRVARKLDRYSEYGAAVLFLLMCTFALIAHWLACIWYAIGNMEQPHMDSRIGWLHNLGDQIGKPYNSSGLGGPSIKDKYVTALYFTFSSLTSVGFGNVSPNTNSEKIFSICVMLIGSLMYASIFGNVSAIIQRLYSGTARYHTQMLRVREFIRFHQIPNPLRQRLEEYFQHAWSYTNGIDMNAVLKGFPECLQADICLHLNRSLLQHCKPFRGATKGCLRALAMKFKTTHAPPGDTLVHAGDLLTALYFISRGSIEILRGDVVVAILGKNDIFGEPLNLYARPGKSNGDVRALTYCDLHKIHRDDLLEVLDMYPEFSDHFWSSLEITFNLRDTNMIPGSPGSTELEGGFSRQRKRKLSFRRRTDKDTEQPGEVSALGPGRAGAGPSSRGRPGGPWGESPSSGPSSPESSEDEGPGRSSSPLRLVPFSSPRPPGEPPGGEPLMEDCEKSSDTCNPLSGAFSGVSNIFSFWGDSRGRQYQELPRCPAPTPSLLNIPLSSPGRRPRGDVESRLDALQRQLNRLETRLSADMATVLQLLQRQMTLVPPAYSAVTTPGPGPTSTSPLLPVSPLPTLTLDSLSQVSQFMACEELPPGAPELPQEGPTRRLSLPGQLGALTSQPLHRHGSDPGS
Experimental: hERG Fluorescence Polarization Assay:
Following the manufacturer's protocol, the hERG assay was performed using Predictor hERG Fluorescence Polarization Assay kit (catalog no. PV5365) from Invitrogen. Briefly, FP measurements were performed on an Analyst GT instrument (Molecular Devices, Sunnyvale, Calif.). Measurements were taken in black 384-well plates (Corning #3677), where both the excitation and the emission occurred from the top of the well. The test compounds were dissolved in DMSO and added at several concentrations to the Predictor hERG FP assay buffer containing 4 nM Predictor hERG tracer red and 10 μL of Predictor hERG membrane in a final volume of 20 μL. Drugs were added to triplicate wells. E-4031 as positive control was included in each plate. Plates were then kept on a shaker at room temperature and polarization values were measured after 4 hrs. The inhibition concentration at which 50% of tracer red gets displaced was obtained by fitting the data using a nonlinear regression analysis as implemented in Prism 5.0 (GraphPad Software).

CN(C)c1cc2c(cc1Sc1nc3c(N)ncnc3n1CCCNC(=O)C(C)(C)C)OCO2 [Compound 1G-43, N-{3-[6-Amino-8-(6-dimethylamino-benzo[1,3]dioxol-5-ylsulfanyl)-purin-9-yl]-propyl}-2,2-dimethyl-propionamide]
Hsp90 binding affinity (in words, referring to Table 12) (Hsp90 (SKBr3 lysate)): high level of binding affinity
IC50 (Hsp90): 11 nM
IC50 (hERG): > 100000 nM

CN(C)c1cc2c(cc1Sc1nc3c(N)ncnc3n1CCCNC(=O)C1CC1)OCO2 [Compound 1G-45, Cyclopropanecarboxylic acid {3-[6-amino-8-(6-dimethylamino-benzo[1,3]dioxol-5-ylsulfanyl)-purin-9-yl]-propyl}-amide]
Hsp90 binding affinity (in words, referring to Table 12) (Hsp90 (SKBr3 lysate)): high level of binding affinity
IC50 (Hsp90): 15 nM
IC50 (hERG): 76000 nM

CC(C)(C)[S+]([O-])NCCCn1c(Cc2cc3c(cc2I)OCO3)nc2c(N)nc(F)nc21 (stereo not drawn) [Compound 4A-26, N-(3-(6-amino-2-fluoro-8-((6-iodobenzo[d][1,3]dioxol-5-yl)methyl)-9H-purin-9-yl)propyl)-2-methylpropane-2-sulfinamide]
Hsp90 binding affinity (in words, referring to Table 12) (Hsp90 (SKBr3 lysate)): high level of binding affinity
IC50 (Hsp90): 26.2 nM
IC50 (hERG): > 100000 nM

Nc1nc(F)nc2c1nc(Cc1cc3c(cc1I)OCO3)n2CCCNS(=O)(=O)C1CC1 [Compound 4A-28, N-(3-(6-amino-2-fluoro-8-((6-iodobenzo[d][1,3]dioxol-5-yl)methyl)-9H-purin-9-yl)propyl)cyclopropane-sulfonamide]
Hsp90 binding affinity (in words, referring to Table 12) (Hsp90 (SKBr3 lysate)): high level of binding affinity
IC50 (Hsp90): 24 nM
IC50 (hERG): > 100000 nM

CC(C)(C)C(=O)NCCCn1c(Cc2cc3c(cc2I)OCO3)nc2c(N)nc(F)nc21 [Compound 4A-43, N-{3-[6-Amino-2-fluoro-8-(6-iodo-benzo[1,3]dioxol-5-ylmethyl)-purin-9-yl]-propyl}-2,2-dimethyl-propionamide]
Hsp90 binding affinity (in words, referring to Table 12) (Hsp90 (SKBr3 lysate)): high level of binding affinity
IC50 (Hsp90): 33.1 nM
IC50 (hERG): > 100000 nM

Nc1nc(F)nc2c1nc(Cc1cc3c(cc1I)OCO3)n2CCCNC(=O)C1CC1 [Compound 4A-45, Cyclopropanecarboxylic acid {3-[6-amino-2-fluoro-8-(6-iodo-benzo[1,3]dioxol-5-ylmethyl)-purin-9-yl]-propyl}-amide]
Hsp90 binding affinity (in words, referring to Table 12) (Hsp90 (SKBr3 lysate)): high level of binding affinity
IC50 (Hsp90): 20 nM
IC50 (hERG): > 100000 nM
